Experimental data reported in ChEMBL document CHEMBL1130537, “Asymmetric synthesis of the sulfoxide metabolite of ON-579 by the kagan protocol” (Bioorg Med Chem Lett, 1997).

Organism: Oryctolagus cuniculus
Assay: Inhibitory activity against U-46,619-induced rabbit platelet aggregation was determined
Assay type: functional

| IC50 (Oryctolagus cuniculus) [µM] | IC50 [µM] | Structure (SMILES) |
| --- | --- | --- |
| 0.34 | – | O=C(O)COc1c(F)cc(SCCNS(=O)(=O)c2ccc(Cl)cc2)cc1F |
| – | 18.9 | O=C(O)COc1c(F)cc([S+]([O-])CCNS(=O)(=O)c2ccc(Cl)cc2)cc1F (racemic; form 2) |
| – | 13.3 | O=C(O)COc1c(F)cc([S+]([O-])CCNS(=O)(=O)c2ccc(Cl)cc2)cc1F (stereo in doubt; (-/-)4b) |
| – | ≥ 1 | O=C(O)COc1c(F)cc([S+]([O-])CCNS(=O)(=O)c2ccc(Cl)cc2)cc1F (racemic; form 1) |
